# In ChEMBL document CHEMBL4371047, “Effect of α-Methoxy Substitution on the Anti-HIV Activity of Dihydropyrimidin-4(3 H)-ones” (J Med Chem, 2019):
# Tests used:
# [1] = Cytotoxicity against human MT4 cells assessed as reduction in cell viability after 5 days by MTT assay; type: cell-based
# [2] = test system: Human immunodeficiency virus 1; assay: Antiviral activity against HIV-1 IRLL98 harboring reverse transcriptase M41L, D67N, Y181C, M184V, R211K, and T215Y mutants infected in human MT4 cells assessed as inhibition of virus-induced cytopathic effect after 5 days by MTT assay; type: functional, organism-based; conditions: Human immunodeficiency virus 1, IRLL98, MT4, 120 h
# [3] = test system: Human immunodeficiency virus 1; assay: Antiviral activity against HIV 1 harboring reverse transcriptase Y181C mutant infected in human MT4 cells assessed as inhibition of virus-induced cytopathic effect after 5 days by MTT assay; type: functional, organism-based; conditions: Human immunodeficiency virus 1, MT4, 120 h
# [4] = test system: Human immunodeficiency virus 1; assay: Antiviral activity against HIV-1 harboring reverse transcriptase K103N mutant infected in human MT4 cells assessed as inhibition of virus-induced cytopathic effect after 5 days by MTT assay; type: functional, organism-based; conditions: Human immunodeficiency virus 1, MT4, 120 h
# [5] = test system: Human immunodeficiency virus 1; assay: Antiviral activity against HIV-1 harboring reverse transcriptase K103N/Y181C double mutant infected in human MT4 cells assessed as inhibition of virus-induced cytopathic effect after 5 days by MTT assay; type: functional, organism-based; conditions: Human immunodeficiency virus 1, MT4, 120 h
# [6] = test system: Human immunodeficiency virus 1; assay: Antiviral activity against wild type HIV 1 NL4-3 infected in human MT4 cells assessed as inhibition of virus-induced cytopathic effect after 5 days by MTT assay; type: functional, organism-based; conditions: Human immunodeficiency virus 1, NL4-3, MT4, 120 h
# [7] = test system: Human immunodeficiency virus 1; assay: Antiviral activity against HIV-1 harboring reverse transcriptase Y188L mutant infected in human MT4 cells assessed as inhibition of virus-induced cytopathic effect after 5 days by MTT assay; type: functional, organism-based; conditions: Human immunodeficiency virus 1, MT4, 120 h
# [8] = test system: Human immunodeficiency virus 1; assay: Resistance index, ratio of EC50 for HIV-1 IRLL98 harboring reverse transcriptase M41L, D67N, Y181C, M184V, R211K, and T215Y mutants to EC50 for wild type HIV-1 NL4-3; type: functional
# [9] = test system: Human immunodeficiency virus 1; assay: Resistance index, ratio of EC50 for HIV-1 harboring reverse transcriptase Y181C mutant to EC50 for wild type HIV-1 NL4-3; type: functional
# [10] = test system: Human immunodeficiency virus 1; assay: Resistance index, ratio of EC50 for HIV-1 harboring reverse transcriptase Y188L mutant to EC50 for wild type HIV-1 NL4-3; type: functional
# [11] = test system: Human immunodeficiency virus 1; assay: Resistance index, ratio of EC50 for HIV-1 harboring reverse transcriptase K103N mutant to EC50 for wild type HIV-1 NL4-3; type: functional
# [12] = test system: Human immunodeficiency virus 1; assay: Resistance index, ratio of ID50 for recombinant HIV-1 His-tagged reverse transcriptase p66/p51 K103N mutant to ID50 for recombinant wild type HIV-1 reverse transcriptase His-tagged p66/p51
# [13] = test system: Human immunodeficiency virus 1; assay: Resistance index, ratio of ID50 for recombinant HIV-1 His-tagged reverse transcriptase p66/p51 Y181I mutant to ID50 for recombinant wild type HIV-1 reverse transcriptase His-tagged p66/p51
# [14] = test system: Human immunodeficiency virus 1; assay: Resistance index, ratio of ID50 for recombinant HIV-1 His-tagged reverse transcriptase p66/p51 L100I mutant to ID50 for recombinant wild type HIV-1 reverse transcriptase His-tagged p66/p51
# [15] = biological target: Human immunodeficiency virus type 1 reverse transcriptase (Human immunodeficiency virus 1) (UniProt Q72547)
# Description: Inhibition of recombinant wild type HIV-1 His-tagged reverse transcriptase p66/p51 expressed in Escherichia coli assessed as reduction in [3H]dTTP incorporation using poly(rA)/oligo(dT) as template/primer after 20 mins by scintillation counting analysis
# [16] = test system: Human immunodeficiency virus type 1 reverse transcriptase (Human immunodeficiency virus 1), Q72547 [K103N]
# Description: Inhibition of recombinant HIV-1 His-tagged reverse transcriptase p66/p51 K103N mutant expressed in Escherichia coli assessed as reduction in [3H]dTTP incorporation using poly(rA)/oligo(dT) as template/primer after 20 mins by scintillation counting analysis
# [17] = test system: Human immunodeficiency virus type 1 reverse transcriptase (Human immunodeficiency virus 1), Q72547 [Y181I]
# [18] = test system: Human immunodeficiency virus type 1 reverse transcriptase (Human immunodeficiency virus 1), Q72547 [L100I]
# [19] = Therapeutic index, ratio of CC50 for human MT4 cells to EC50 for HIV-1 NL4-3 infected in human MT4 cells; type: toxicity, cell-based; conditions: read-out: Ratio CC50/EC50
# [20] = test system: Human immunodeficiency virus 1; assay: Resistance index, ratio of EC50 for HIV-1 harboring reverse transcriptase K103N/Y181C double mutant to EC50 for wild type HIV-1 NL4-3; type: functional
Compound,CC50 at 120 h [1] [nM],EC50 [2] [nM],EC50 [3] [nM],EC50 [4] [nM],EC50 [5] [nM],EC50 [6] [nM],EC50 [7] [nM],Ratio EC50 [8],Ratio EC50 [9],Ratio EC50 [10],Ratio EC50 [11],Ratio [12],Ratio [13],Ratio [14],ID50 [15] [nM],ID50 [16] [nM],ID50 [17] [nM],ID50 [18] [nM],selectivity ratio [19],Ratio EC50 [20]
O=C1Nc2ccc(Cl)cc2[C@@](C#CC2CC2)(C(F)(F)F)O1 [EFAVIRENZ],> 3000,630,44,390,400,–,–,–,–,–,–,–,–,–,–,–,–,–,–,–
COC(c1nc(SC2CCCC2)[nH]c(=O)c1C)c1c(F)cccc1F (configuration not stated),34300,840,2700,2800,–,29,3200,29,93,110,97,19,41,65,14,260,570,910,–,–
CCCNc1nc(C(OC)c2c(F)cccc2F)c(C)c(=O)[nH]1 (configuration not stated),81400,16,98,32,–,5,3500,3,20,700,6,5,42,24,40,220,1700,980,16300,–
COC(c1nc(SC2CCCC2)[nH]c(=O)c1C)c1c(F)cccc1Cl (configuration not stated),36800,12,160,70,–,0.7,860,17,229,1229,100,21,543,329,7,150,3800,2300,52600,–
CCC(C)Sc1nc(C(OC)c2c(F)cccc2F)c(C)c(=O)[nH]1 (configuration not stated),27200,240,370,1600,–,9,2800,27,41,311,178,500,1800,93,3,1500,5400,280,3020,–
CCC(C)Sc1nc(C(CC)c2c(F)cccc2F)c(C)c(=O)[nH]1 (configuration not stated),> 3000,150,–,–,–,–,–,187,–,–,–,–,–,–,6,140,–,48,> 3750,–
Cc1c(C(C)c2c(F)cccc2F)nc(NC(C)C)[nH]c1=O (configuration not stated),200000,150,350,890,–,20,> 10000,7,17,–,44,11,101,7,35,400,3520,250,10000,–
COC(c1nc(SC(C)C)[nH]c(=O)c1C)c1c(F)cccc1F (configuration not stated),> 25000,520,560,1100,–,17,2900,31,33,171,65,16,1140,71,8,130,9100,570,> 1470,–
Cc1cc(C)c(Nc2ccnc(Nc3ccc(C#N)cc3)n2)c(C)c1 [DAPIVIRINE],–,6,–,2.2,–,0.6,–,–,–,–,–,–,–,–,–,–,–,–,–,–
COC(c1nc(NC(C)C)[nH]c(=O)c1C)c1c(F)cccc1F (configuration not stated),> 81400,70,140,230,–,14,6600,5,10,471,16,11,33,19,57,620,1900,1100,> 5810,–
Cc1c(O)nc(SC(C)C)nc1C(C)c1c(F)cccc1F (configuration not stated),–,145,–,–,–,–,–,145,–,–,–,–,–,–,3,580,–,280,–,–
Cc1c(C(C)c2c(F)cccc2F)nc(SC2CCCC2)[nH]c1=O (configuration not stated),> 3000,120,–,230,–,1,–,120,100,–,–,60,180,60,5,300,900,300,> 3000,–
Cc1ccnc2c1NC(=O)c1cccnc1N2C1CC1 [NEVIRAPINE],> 7000,–,–,–,> 7000,–,> 7000,–,–,–,–,–,–,–,–,–,33000 to 35000,8500 to 9000,–,–
CCC(c1nc(SC2CCCC2)[nH]c(=O)c1C)c1c(F)cccc1F (configuration not stated),30000,750,–,–,–,–,–,68,100,–,–,–,–,–,5,380,–,110,2730,–
CCC(c1nc(SC(C)C)[nH]c(=O)c1C)c1c(F)cccc1F (configuration not stated),> 30000,280,–,–,–,–,–,70,–,–,–,–,–,–,4,310,–,210,> 7500,–
Cc1c(C(C)c2c(F)cccc2Cl)nc(SC2CCCC2)[nH]c1=O (configuration not stated),> 15000,68,–,–,–,–,–,2267,–,–,–,–,–,–,11,1300,–,120,> 500000,–
Cc1cc(C#N)cc(C)c1Oc1nc(Nc2ccc(C#N)cc2)nc(N)c1Br [ETRAVIRINE],3500,–,9,2,–,0.5,–,–,18,40,4,–,–,–,6,85,–,–,7000,38
CCCNc1nc(C(OC)c2c(Cl)cccc2Cl)c(C)c(=O)[nH]1 (configuration not stated),49200,–,1700,210,–,15,7600,–,113,507,14,13,31,18,120,1600,3700,2200,3280,–
CCCN(C)c1nc(C(C)c2c(F)cccc2F)c(C)c(=O)[nH]1 (configuration not stated),> 78000,7,17,16,–,1.9,49,4,9,26,9,6,40,6,–,–,–,–,> 41000,–
CCC(C)Sc1nc(O)c(C)c(C(C)c2c(F)cccc2F)n1 (configuration not stated),> 3000,79,–,–,–,–,–,88,–,–,–,–,–,–,31,1700,–,670,> 3330,–
CCCNc1nc(C(C)c2c(F)cccc2F)c(C)c(=O)[nH]1 (configuration not stated),35000,90,60,–,–,–,> 10000,30,20,–,–,12,125,8,40,470,5020,310,11700,–
